Assay results as given in patent publication US6790619B2, “Plant phosphomevalonate kinases” (Bayer Aktiengesellschaft, priority 2000, dated 2004).
Entries after “also recorded” stand apart in the source; their conditions may differ.

Tested on: PMVK expression
Assay: virtual Northern blot analysis of differential PMVK expression in response to chlorsulfuron
Type: in vivo, Arabidopsis thaliana cv. Columbia
Settings: Arabidopsis plants harvested 24 hours after treatment with chlorsulfuron 10 g/ha vs control treatment
Protocol: Suppression subtractive hybridization constitutes a method of isolating differentially expressed genes. The two samples to be compared were on the one hand Arabidopsis plants which had been harvested 24 hours after treatment with a herbicide (chlorsulfuron, 10 g/ha) and, on the other hand, Arabidopsis plants which had been harvested 24 hours after a control treatment. The 370 bp PMVK fragment was isolated from the chlorsulfuron-treated plants in which PMVK transcription may have been induced by the treatment. To verify differential PMVK expression in the response to chlorsulfuron, so-called virtual Northern blot analyses were carried out. In a virtual Northern blot, cDNA is prepared from total RNA with Clontech's SMART method (see manufacturer's instructions) and amplified by PCR. A low enough number of PCR cycles is employed so that the amplification is still within the linear range of the PCR. In the present case, an optimum between 15 and 18 cycles emerged. The SMART cDNA is separated on an agarose gel by methods known to the skilled worker, transferred to a nylon membrane and hybridized with a DIG-labelled probe. This method permits study of the expression even of genes with a low expression level.

COc1nc(C)nc(NC(=O)NS(=O)(=O)c2ccccc2Cl)n1 [chlorsulfuron]
induction of PMVK expression: low degree of induction; also recorded: possible to induce this gene
